The supplement of paper PMC4862054

Columns and labels:
BT-474 = settings: 72 h
Procedure, shortened: (§1)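 EC50 was fitted from dose-response curves and censored at the highest concentration tested. To build those curves, breast cancer cell lines (20 µl suspension) were seeded into 384-well plates containing compound at 5 concentrations in 10-fold steps over a compound-specific 10,000-fold range and incubated for 72 h. Readouts were CellTox Green fluorescence (485/520 nm) for cell death and then CellTiter-Glo luminescence for viability, with each plate normalised to 0.1 % DMSO and a positive kill control.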

BT-549 [1] = settings: 72 h
Procedure, shortened: as §1

CAL-120 [2] = settings: 72 h
Procedure, shortened: as §1

CAL-148 [3] = settings: 72 h
Procedure, shortened: as §1

CAL-51 [4] = settings: 72 h
Procedure, shortened: as §1

CAL-85-1 [5] = settings: 72 h
Procedure, shortened: as §1

DU-4475 [6] = settings: 72 h
Procedure, shortened: as §1

HCC1143 [7] = settings: 72 h
Procedure, shortened: as §1

HCC1599 [8] = settings: 72 h
Procedure, shortened: as §1

HCC1937 [9] = settings: 72 h
Procedure, shortened: as §1

HDQ-P1 [10] = settings: 72 h
Procedure, shortened: as §1

Hs578T [11] = settings: 72 h
Procedure, shortened: as §1

MCF-10A = settings: 72 h
Procedure, shortened: as §1

MDA-MB-231 [12] = settings: 72 h
Procedure, shortened: as §1

MDA-MB-436 [13] = settings: 72 h
Procedure, shortened: as §1

MDA-MB-453 [14] = settings: 72 h
Procedure, shortened: as §1

MDA-MB-468 [15] = settings: 72 h
Procedure, shortened: as §1

MFM-223 [16] = settings: 72 h
Procedure, shortened: as §1

SK-BR-3 [17] = settings: 72 h
Procedure, shortened: as §1

CAL-148 [18] = settings: 72 h; remark: listed apart in the source
Procedure, shortened: (§2)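 Compound dissolved in 5 µl medium was placed in 384-well plates before 20 µl of breast cancer cell suspension was added, and the plates were incubated for 72 h. Cells then received 2.5 µl CellTiter-Blue for 2 h at 37 °C, and fluorescence was read at 560/590 nm. EC50 values come from percent-inhibition dose-response fits that were censored at the highest concentration, with plates normalised to vehicle and a positive kill control and rows with a zero drug sensitivity score excluded.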

CAL-51 [19] = settings: 72 h; remark: listed apart in the source
Procedure, shortened: as §2

CAL-85-1 [20] = settings: 72 h; remark: listed apart in the source
Procedure, shortened: as §2

DU-4475 [21] = settings: 72 h; remark: listed apart in the source
Procedure, shortened: as §2

HDQ-P1 [22] = settings: 72 h; remark: listed apart in the source
Procedure, shortened: as §2

MDA-MB-453 [23] = settings: 72 h; remark: listed apart in the source
Procedure, shortened: as §2

BT-549 [24] = settings: 72 h; remark: listed apart in the source
Procedure, shortened: as §2

CAL-120 [25] = settings: 72 h; remark: listed apart in the source
Procedure, shortened: as §2

HCC1143 [26] = settings: 72 h; remark: listed apart in the source
Procedure, shortened: as §2

HCC1599 [27] = settings: 72 h; remark: listed apart in the source
Procedure, shortened: as §2

HCC1937 [28] = settings: 72 h; remark: listed apart in the source
Procedure, shortened: as §2

Hs578T [29] = settings: 72 h; remark: listed apart in the source
Procedure, shortened: as §2

MDA-MB-231 [30] = settings: 72 h; remark: listed apart in the source
Procedure, shortened: as §2

MDA-MB-436 [31] = settings: 72 h; remark: listed apart in the source
Procedure, shortened: as §2

MDA-MB-468 [32] = settings: 72 h; remark: listed apart in the source
Procedure, shortened: as §2

MFM-223 [33] = settings: 72 h; remark: listed apart in the source
Procedure, shortened: as §2

SK-BR-3 [34] = settings: 72 h; remark: listed apart in the source
Procedure, shortened: as §2

MDA-MB-231 [35] = test: normalised viability (% of control), CellTiter-Blue; higher = more viable cells (about 100 = DMSO control); settings: incubation time: 72 h
Procedure, shortened: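 The reported figure is normalised viability at a single listed concentration of the series. Breast cancer cell lines (20 µl suspension) went onto 384-well plates holding compound in 5 µl medium for 72 h. CellTiter-Blue (2.5 µl, 2 h, 37 °C) was read by fluorescence at 560/590 nm, and each plate was scaled to vehicle at 100 and a positive kill control at 0.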

SMILES	EC50, CellTiter-Glo (BT-474) [nM]	EC50, CellTiter-Glo (BT-549 [1]) [nM]	EC50, CellTiter-Glo (CAL-120 [2]) [nM]	EC50, CellTiter-Glo (CAL-148 [3]) [nM]	EC50, CellTiter-Glo (CAL-51 [4]) [nM]	EC50, CellTiter-Glo (CAL-85-1 [5]) [nM]	EC50, CellTiter-Glo (DU-4475 [6]) [nM]	EC50, CellTiter-Glo (HCC1143 [7]) [nM]	EC50, CellTiter-Glo (HCC1599 [8]) [nM]	EC50, CellTiter-Glo (HCC1937 [9]) [nM]	EC50, CellTiter-Glo (HDQ-P1 [10]) [nM]	EC50, CellTiter-Glo (Hs578T [11]) [nM]	EC50, CellTiter-Glo (MCF-10A) [nM]	EC50, CellTiter-Glo (MDA-MB-231 [12]) [nM]	EC50, CellTiter-Glo (MDA-MB-436 [13]) [nM]	EC50, CellTiter-Glo (MDA-MB-453 [14]) [nM]	EC50, CellTiter-Glo (MDA-MB-468 [15]) [nM]	EC50, CellTiter-Glo (MFM-223 [16]) [nM]	EC50, CellTiter-Glo (SK-BR-3 [17]) [nM]	EC50, CellTiter-Blue viability (CAL-148 [18]) [nM]	also measured
COc1ncc(-c2ccc3nccc(-c4ccnnc4)c3c2)cc1NS(=O)(=O)c1ccc(F)cc1F	19.8	21.8	27.6	76.8	34.7	15.8	228	32.5	13.9	130	14.2	37.6	12.9	56.6	23.8	14.8	43	16.2	6.82	27.6	EC50, CellTiter-Blue viability (CAL-51 [19]): 12.6 nM; EC50, CellTiter-Blue viability (CAL-85-1 [20]): 27.2 nM; EC50, CellTiter-Blue viability (DU-4475 [21]): 113 nM; EC50, CellTiter-Blue viability (HDQ-P1 [22]): 6.71 nM; EC50, CellTiter-Blue viability (MDA-MB-453 [23]): 5.38 nM; EC50, CellTiter-Blue viability (BT-549 [24]): 45.1 nM; EC50, CellTiter-Blue viability (CAL-120 [25]): 20.1 nM; EC50, CellTiter-Blue viability (HCC1143 [26]): 19.8 nM; EC50, CellTiter-Blue viability (HCC1599 [27]): 7.37 nM; EC50, CellTiter-Blue viability (HCC1937 [28]): 27.9 nM; EC50, CellTiter-Blue viability (Hs578T [29]): 36.6 nM; EC50, CellTiter-Blue viability (MDA-MB-231 [30]): 33.5 nM; EC50, CellTiter-Blue viability (MDA-MB-436 [31]): 26.4 nM; EC50, CellTiter-Blue viability (MDA-MB-468 [32]): 49.8 nM; EC50, CellTiter-Blue viability (MFM-223 [33]): 8.62 nM; EC50, CellTiter-Blue viability (SK-BR-3 [34]): 3.24 nM; normalised viability (MDA-MB-231 [35]; 1 nM): 96.2%; normalised viability (MDA-MB-231 [35]; 100 nM): 41.2%; normalised viability (MDA-MB-231 [35]; 1000 nM): 23.7%
COc1c(C)cnc(Cn2cnc3c(Cl)nc(N)nc32)c1C [BIIB021]	421	92.6	247	199	227	308	329	416	190	157	242	756	354	483	141	153	370	192	13.7	133	EC50, CellTiter-Blue viability (CAL-51 [19]): 341 nM; EC50, CellTiter-Blue viability (CAL-85-1 [20]): 490 nM; EC50, CellTiter-Blue viability (DU-4475 [21]): 143 nM; EC50, CellTiter-Blue viability (HDQ-P1 [22]): 241 nM; EC50, CellTiter-Blue viability (MDA-MB-453 [23]): 64 nM; EC50, CellTiter-Blue viability (BT-549 [24]): 44.8 nM; EC50, CellTiter-Blue viability (CAL-120 [25]): 26.9 nM; EC50, CellTiter-Blue viability (HCC1143 [26]): 64 nM; EC50, CellTiter-Blue viability (HCC1599 [27]): 721 nM; EC50, CellTiter-Blue viability (HCC1937 [28]): 87.1 nM; EC50, CellTiter-Blue viability (Hs578T [29]): 47 nM; EC50, CellTiter-Blue viability (MDA-MB-231 [30]): 177 nM; EC50, CellTiter-Blue viability (MDA-MB-436 [31]): 429 nM; EC50, CellTiter-Blue viability (MDA-MB-468 [32]): 353 nM; EC50, CellTiter-Blue viability (MFM-223 [33]): 57.7 nM; EC50, CellTiter-Blue viability (SK-BR-3 [34]): 28 nM; normalised viability (MDA-MB-231 [35]; 10 nM): 86.1%; normalised viability (MDA-MB-231 [35]; 1000 nM): 34.1%; normalised viability (MDA-MB-231 [35]; 10000 nM): 23.8%
CC(C)C[C@H](NC(=O)[C@H](Cc1ccccc1)NC(=O)c1cnccn1)B(O)O [Bortezomib]	8.94	3.96	16.1	60.1	30	4.47	27.1	19	97	71.2	12.4	13.1	134	13.9	6.1	22.9	2.93	5.1	0.28	24.7	EC50, CellTiter-Blue viability (CAL-51 [19]): 38.9 nM; EC50, CellTiter-Blue viability (CAL-85-1 [20]): 7.76 nM; EC50, CellTiter-Blue viability (DU-4475 [21]): 18.6 nM; EC50, CellTiter-Blue viability (HDQ-P1 [22]): 5.29 nM; EC50, CellTiter-Blue viability (MDA-MB-453 [23]): 6.36 nM; EC50, CellTiter-Blue viability (BT-549 [24]): 7.83 nM; EC50, CellTiter-Blue viability (CAL-120 [25]): 5.42 nM; EC50, CellTiter-Blue viability (HCC1143 [26]): 6.46 nM; EC50, CellTiter-Blue viability (HCC1599 [27]): 79.5 nM; EC50, CellTiter-Blue viability (HCC1937 [28]): 2.93 nM; EC50, CellTiter-Blue viability (Hs578T [29]): 22.2 nM; EC50, CellTiter-Blue viability (MDA-MB-231 [30]): 3.89 nM; EC50, CellTiter-Blue viability (MDA-MB-436 [31]): 34.9 nM; EC50, CellTiter-Blue viability (MDA-MB-468 [32]): 2.95 nM; EC50, CellTiter-Blue viability (MFM-223 [33]): 6.67 nM; EC50, CellTiter-Blue viability (SK-BR-3 [34]): 2.77 nM; normalised viability (MDA-MB-231 [35]; 1 nM): 92.4%; normalised viability (MDA-MB-231 [35]; 100 nM): 2.05%; normalised viability (MDA-MB-231 [35]; 1000 nM): 0.27%
C#Cc1cccc(Nc2ncnc3cc(OC)c(OCCCCCCC(=O)NO)cc23)c1 [CUDC-101]	1970	1170	3230	1280	847	212	1500	783	911	1470	3360	1920	242	689	1640	123	202	190	507	817	EC50, CellTiter-Blue viability (CAL-51 [19]): 3790 nM; EC50, CellTiter-Blue viability (CAL-85-1 [20]): 426 nM; EC50, CellTiter-Blue viability (DU-4475 [21]): 1130 nM; EC50, CellTiter-Blue viability (HDQ-P1 [22]): 213 nM; EC50, CellTiter-Blue viability (MDA-MB-453 [23]): 168 nM; EC50, CellTiter-Blue viability (BT-549 [24]): 1620 nM; EC50, CellTiter-Blue viability (CAL-120 [25]): 294 nM; EC50, CellTiter-Blue viability (HCC1143 [26]): 361 nM; EC50, CellTiter-Blue viability (HCC1599 [27]): 295 nM; EC50, CellTiter-Blue viability (HCC1937 [28]): 770 nM; EC50, CellTiter-Blue viability (Hs578T [29]): 394 nM; EC50, CellTiter-Blue viability (MDA-MB-231 [30]): 835 nM; EC50, CellTiter-Blue viability (MDA-MB-436 [31]): 969 nM; EC50, CellTiter-Blue viability (MDA-MB-468 [32]): 200 nM; EC50, CellTiter-Blue viability (MFM-223 [33]): 145 nM; EC50, CellTiter-Blue viability (SK-BR-3 [34]): 101 nM; normalised viability (MDA-MB-231 [35]; 10 nM): 87.8%; normalised viability (MDA-MB-231 [35]; 1000 nM): 46%; normalised viability (MDA-MB-231 [35]; 10000 nM): 3.42%
